Test system: corn
Assay: Field trial: esterase on urea with or without NBPT, corn yield
Type: in vivo
Details: corn, NBPT 64 fl oz/ton on Urea (135 lb/A Nitrogen), no EstA
Experimental: Esterase A (EstA) from Bacillus subtilis (SEQ ID NO:254) was produced via fermentation of a recombinantly produced enzyme in Bacillus subtilis. 1, 2, or 3 fl oz of fermentation product was applied onto 135 lb N/A (nitrogen equivalent per acre) urea fertilizer in a concrete mixer, and allowed to mix for 1 minute. A urea control treatment without fermentation media was also created. An addition treatment that contained 64 fl oz/ton N-Butyl-thiophosphoric triamide (NBPT) nitrogen stabilizer or 64 fl oz/ton NBPT nitrogen stabilizer with 3 fl oz/A EstA fermentation product was also included in the trial. Urea, alone or with fermentation media was distributed across 4 small replicated plots each prior to planting of corn with 4 replicates of 400 ft2 each at each site.

CCCCNP(N)(N)=S [NBPT, N-Butyl-thiophosphoric triamide, reference compound]
Yield (base control 188.2): 191.2 Bu/A | Yield (base control 11830.4): 12022.3 Kg/ha

Reference: patent US20240324599A1, “PESTICIDAL ENZYMES FOR USE ON NEMATODES, INSECTS, AND MOLLUSKS” (priority 2023, published 2024)
